Measured values published in patent USRE39609E1, “8-iso-prostaglandins for glaucoma therapy” (Mount Sinai School of Medicine of New York University, priority 1997, dated 2007).

Columns and labels:
Format in all cases: in vivo
[1] = test system: laser-induced glaucomatous eyes in cynomolgus monkeys; assay: Intraocular pressure after single topical dose in glaucomatous monkey eyes; conditions: for Intraocular Pressure (treated - baseline) (mean ± SEM) / relative activity in decreasing IOP among the compounds tested: glaucomatous monkey eyes; for maximum reduction in IOP (mean SEM) / time for which IOP was reduced (p<0.05): single 25 μl dose of 0.1 percent, laser-induced glaucomatous eyes, cynomolgus monkeys; for relative activity in decreasing IOP among the compounds tested: 0.1 percent; for maximum reduction in IOP (mean±SEM) as compared to baseline / time for which IOP was reduced (p<0.005): single 25 μl dose
Description: Experiments were performed to evaluate the effects of single dose administration of 8-iso PGE2 an IOP in normal (“N”) and glaucomatous (“G”) monkey eyes, and to determine the mechanism by which 8-iso PGE2 alters IOP in N monkey eyes, when applied topically. A single 25 μl dose study was performed in 6 N and 8 G monkeys. IOP and pupil sizes were measured before and at 0 hr, 0.5 hr and then hourly for a total of 6 hrs after 0.05% or 0.1% drug concentrations were administered. Tonographic outflow facility (“C”) and fluorophotometric aqueous humor flow (F) were determined in 6 N monkeys before and after unilateral application of 25 μl of 0.1% 8-iso PGE2. In 8 G monkey eyes, 8-isoPGE2 reduced IOP (p<0.005) up to 2 hrs or 5 hrs following administration of the 0.05% or 0.1% concentration, respectively. The maximum reduction in IOP was 4.6±0.8 (mean±SEM)mm Hg (0.05%) and 6.6±0.8 mm Hg (0.1%), as compared to baseline measurements. After topical application of 8-iso PGE2 the IOP was lower (p<0.01) in the treated eyes of 6 N monkeys for 4 hrs, with a maximum difference of 3.2±0.2 mmHg, as compared to the fellow contralateral control eyes. The pupil size was smaller (p<0.01) for 4 hrs, up to 1.0±0.2 mm. Compared with vehicle-treated contralateral control eyes, C was greater (p<0.005) by 48% at 2 hr after a single dose of 0.1% 8-iso PGE2. F was unchanged (p<0.10) over a period of 4 hrs after drug administration. […] Because of the individual variability in laser-induced glaucomatous monkey eyes, the IOP and facility measurements are expressed in the table as ratios (value of the drug-treated eye+the value of the vehicle-treated eye). The ratios were calculated from the values of the same glaucomatous monkey eye determined immediately prior to administration of the drug or the vehicle (time 0 hrs.), and the values at 2 hours after administration of the drug or vehicle. […] Thus the mechanism of lowering IOP by 8-iso PGE2 in both normal and glaucomatous eyes is primarily due to an increase in aqueous humor trabecular outflow. IOP was measured one hour before and at intervals up to six hours after a single dose of 8-iso PGE, (the 13, 14 dihydro derivative of 8-iso PGE2), 8-iso PGE2, or 8-iso PGF2α in laser-induced glaucomatous eyes in cynomolgus monkeys (wherein only one eye is rendered glaucomatous and the other serves as a control). Following one day of baseline IOP measurement, a single 25 μl dose of either (i) 0.1 percent 8-iso PGE1, or (ii) 0.1 percent 8-iso PGE2, or (iii) 0.1 percent 8-iso PGF2α, was topically applied to the glaucomatous eye in groups of 4 or 8 monkeys. […] The maximum reduction in IOP was 5.3±0.8 (mean SEM) mm Hg at 2 hours after dosing 8-iso PGE2 (0.1 percent) reduced IOP (p<0.05) for 5 hours with a maximum reduction in IOP of 6.6±0.8 mm Hg at 2 hours after dosing (n=8). […] Based on these studies, of the compounds tested, 8-iso PGE2 appears to have the greatest and 8-iso PGF2α, the least activity in decreasing IOP in glaucomatous monkey eyes.

normal monkey eyes [2] = assay: Intraocular pressure after single topical dose in normal monkey eyes
Description: Experiments were performed to evaluate the effects of single dose administration of 8-iso PGE2 an IOP in normal (“N”) and glaucomatous (“G”) monkey eyes, and to determine the mechanism by which 8-iso PGE2 alters IOP in N monkey eyes, when applied topically. A single 25 μl dose study was performed in 6 N and 8 G monkeys. […] Tonographic outflow facility (“C”) and fluorophotometric aqueous humor flow (F) were determined in 6 N monkeys before and after unilateral application of 25 μl of 0.1% 8-iso PGE2. In 8 G monkey eyes, 8-isoPGE2 reduced IOP (p<0.005) up to 2 hrs or 5 hrs following administration of the 0.05% or 0.1% concentration, respectively. The maximum reduction in IOP was 4.6±0.8 (mean±SEM)mm Hg (0.05%) and 6.6±0.8 mm Hg (0.1%), as compared to baseline measurements. After topical application of 8-iso PGE2 the IOP was lower (p<0.01) in the treated eyes of 6 N monkeys for 4 hrs, with a maximum difference of 3.2±0.2 mmHg, as compared to the fellow contralateral control eyes. The pupil size was smaller (p<0.01) for 4 hrs, up to 1.0±0.2 mm. Compared with vehicle-treated contralateral control eyes, C was greater (p<0.005) by 48% at 2 hr after a single dose of 0.1% 8-iso PGE2. F was unchanged (p<0.10) over a period of 4 hrs after drug administration.

normal monkey eyes [3] = assay: Pupil size after topical application in normal monkeys
Description: (§1) Experiments were performed to evaluate the effects of single dose administration of 8-iso PGE2 an IOP in normal (“N”) and glaucomatous (“G”) monkey eyes, and to determine the mechanism by which 8-iso PGE2 alters IOP in N monkey eyes, when applied topically. A single 25 μl dose study was performed in 6 N and 8 G monkeys. IOP and pupil sizes were measured before and at 0 hr, 0.5 hr and then hourly for a total of 6 hrs after 0.05% or 0.1% drug concentrations were administered. Tonographic outflow facility (“C”) and fluorophotometric aqueous humor flow (F) were determined in 6 N monkeys before and after unilateral application of 25 μl of 0.1% 8-iso PGE2. In 8 G monkey eyes, 8-isoPGE2 reduced IOP (p<0.005) up to 2 hrs or 5 hrs following administration of the 0.05% or 0.1% concentration, respectively. The maximum reduction in IOP was 4.6±0.8 (mean±SEM)mm Hg (0.05%) and 6.6±0.8 mm Hg (0.1%), as compared to baseline measurements. After topical application of 8-iso PGE2 the IOP was lower (p<0.01) in the treated eyes of 6 N monkeys for 4 hrs, with a maximum difference of 3.2±0.2 mmHg, as compared to the fellow contralateral control eyes. The pupil size was smaller (p<0.01) for 4 hrs, up to 1.0±0.2 mm. Compared with vehicle-treated contralateral control eyes, C was greater (p<0.005) by 48% at 2 hr after a single dose of 0.1% 8-iso PGE2. […]

normal monkey eyes [4] = assay: Tonographic outflow facility (C) in normal monkeys
Description: Experiments were performed to evaluate the effects of single dose administration of 8-iso PGE2 an IOP in normal (“N”) and glaucomatous (“G”) monkey eyes, and to determine the mechanism by which 8-iso PGE2 alters IOP in N monkey eyes, when applied topically. A single 25 μl dose study was performed in 6 N and 8 G monkeys. […] In 8 G monkey eyes, 8-isoPGE2 reduced IOP (p<0.005) up to 2 hrs or 5 hrs following administration of the 0.05% or 0.1% concentration, respectively. The maximum reduction in IOP was 4.6±0.8 (mean±SEM)mm Hg (0.05%) and 6.6±0.8 mm Hg (0.1%), as compared to baseline measurements. After topical application of 8-iso PGE2 the IOP was lower (p<0.01) in the treated eyes of 6 N monkeys for 4 hrs, with a maximum difference of 3.2±0.2 mmHg, as compared to the fellow contralateral control eyes. The pupil size was smaller (p<0.01) for 4 hrs, up to 1.0±0.2 mm. […] F was unchanged (p<0.10) over a period of 4 hrs after drug administration.

normal monkey eyes [5] = assay: Fluorophotometric aqueous humor flow (F) in normal monkeys; conditions: 6 normal monkeys, over 4 hrs after 25 μl of 0.1%
Description: as §1

monkey eyes = assay: Ocular side effects after topical dosing in monkey eyes; conditions: eyes treated with the 0.1% concentration
Description: as §1

glaucomatous monkey eyes = assay: Outflow facility in glaucomatous monkey eyes; conditions: 0.1%, 8 glaucomatous monkey eyes
Description: Because of the individual variability in laser-induced glaucomatous monkey eyes, the IOP and facility measurements are expressed in the table as ratios (value of the drug-treated eye+the value of the vehicle-treated eye). The ratios were calculated from the values of the same glaucomatous monkey eye determined immediately prior to administration of the drug or the vehicle (time 0 hrs.), and the values at 2 hours after administration of the drug or vehicle. […] Thus the mechanism of lowering IOP by 8-iso PGE2 in both normal and glaucomatous eyes is primarily due to an increase in aqueous humor trabecular outflow.

[6] = 0.1%, 2 hours after treatment, 6 normal monkeys (Table 1A)
[7] = 0.005%, 6 normal monkeys, 1 hour after treatment
[8] = 0.005%, 1 hour after treatment, 6 normal monkeys (Table 1B)

Compound: CCCCC[C@H](O)/C=C/[C@H]1[C@H](O)CC(=O)[C@H]1CCCCCCC(=O)O [8-iso PGE1, 8-iso, 5,6 dihydro prostaglandin E2]
- Intraocular Pressure (treated - baseline) (mean ± SEM) ([1]; 0.1%, 1 hr): −3.3 ± 1.3 mm Hg
- Intraocular Pressure (treated - baseline) (mean ± SEM) ([1]; 0.1%, 2 hr): −5.3 ± 0.8 mm Hg
- Intraocular Pressure (treated - baseline) (mean ± SEM) ([1]; 0.1%, 4 hr): −2.3 ± 0.5 mm Hg
- Intraocular Pressure (treated - baseline) (mean ± SEM) ([1]; 0.1%, 6 hr): −1.3 ± 0.9 mm Hg
- maximum reduction in IOP (mean SEM) [1]: 5.3±0.8 mm Hg
- time for which IOP was reduced (p<0.05) [1]: up to four

Compound: CCCCC[C@H](O)/C=C/[C@H]1[C@H](O)CC(=O)[C@H]1C/C=C\CCCC(=O)O [8-iso PGE2, prosta-5,13-dien-1-oic acid, 11,15-dihydroxy-9-oxo, (5Z, 8β, 11α, 13E,15S)]
- Intraocular Pressure response ratio (drug-treated/vehicle-treated) ([1]; 0.1%, 8 glaucomatous monkey eyes, 2 hr): 0.843 ±
- % change by drug in intraocular pressure (decrease) ([1]; 0.1%, 8 glaucomatous monkey eyes, 2 hr vs 0 hr): 13.8%
- Intraocular Pressure (treated - baseline) (mean ± SEM) ([1]; 0.1%, 1 hr): −4.5 ± 0.9 mm Hg
- Intraocular Pressure (treated - baseline) (mean ± SEM) ([1]; 0.1%, 2 hr): −6.6 ± 0.8 mm Hg
- Intraocular Pressure (treated - baseline) (mean ± SEM) ([1]; 0.1%, 4 hr): −2.9 ± 0.6 mm Hg
- Intraocular Pressure (treated - baseline) (mean ± SEM) ([1]; 0.1%, 6 hr): −1.2 ± 1.2 mm Hg
- relative activity in decreasing IOP among the compounds tested [1]: greatest
- maximum reduction in IOP (mean±SEM) as compared to baseline ([1]; 8 glaucomatous monkey eyes, 0.05%): 4.6±0.8 mm Hg
- time for which IOP was reduced (p<0.005) ([1]; 8 glaucomatous monkey eyes, 0.05% concentration): up to 2 hrs
- maximum reduction in IOP (mean±SEM) as compared to baseline ([1]; 8 glaucomatous monkey eyes, 0.1%): 6.6±0.8 mm Hg
- time for which IOP was reduced (p<0.005) ([1]; 8 glaucomatous monkey eyes, 0.1% concentration): ≤ 5 h
- maximum reduction in IOP (mean SEM) [1]: 6.6±0.8 mm Hg
- time for which IOP was reduced (p<0.05) [1]: 5 h
- Intraocular Pressure Mean ± SEM, treated eyes (drug) (normal monkey eyes [2]; 0.1%, 6 normal monkeys, 2 hours after treatment): 13.0 ± 0.7 mmHg
- lowering of IOP in normal monkey eye (normal monkey eyes [2]; [6]): 20.3%
- maximum difference in IOP as compared to fellow contralateral control eyes (normal monkey eyes [2]; 6 normal monkeys, topical application): 3.2±0.2 mmHg
- time for which IOP was lower (p<0.01) in treated eyes (normal monkey eyes [2]; 6 normal monkeys, topical application, vs fellow contralateral control eyes): 4 h
- reduction in pupil size (normal monkey eyes [3]): up to 1.0±0.2 mm
- time for which pupil size was smaller (p<0.01) (normal monkey eyes [3]): 4 h
- increase of outflow facility in normal monkey eye (normal monkey eyes [4]; [6]): 43.1%
- outflow facility C greater compared with vehicle-treated contralateral control eyes (p<0.005) (normal monkey eyes [4]; 6 normal monkeys, 2 hr after single 25 μl dose of 0.1%): 48%
- aqueous humor flow F change (normal monkey eyes [5]): unchanged
- ocular side effects (monkey eyes): Mild eyelid edema, conjunctival edema, hyperemia, and discharge appeared in some eyes
- Outflow facility response ratio (drug-treated/vehicle treated) (glaucomatous monkey eyes; 2 hr): 1.445 ±
- % change by drug in outflow facility (glaucomatous monkey eyes; 2 hr vs 0 hr): 38.8%

Compound: CCCCC[C@H](O)/C=C/[C@@H]1[C@H](C/C=C\CCCC(=O)O)[C@@H](O)C[C@H]1O [8-iso PGF2α, prosta-5,13-dien-1-oic acid, 9, 11, 15-trihydroxy-, (5Z, 8β, 9α, 11α, 13E, 15S)-]
- Intraocular Pressure (treated - baseline) (mean ± SEM) ([1]; 0.1%, 1 hr): −3.3 ± 0.8 mm Hg
- Intraocular Pressure (treated - baseline) (mean ± SEM) ([1]; 0.1%, 2 hr): −1.8 ± 1.1 mm Hg
- Intraocular Pressure (treated - baseline) (mean ± SEM) ([1]; 0.1%, 4 hr): −0.8 ± 1.7 mm Hg
- Intraocular Pressure (treated - baseline) (mean ± SEM) ([1]; 0.1%, 6 hr): 0.3 ± 0.5 mm Hg
- relative activity in decreasing IOP among the compounds tested [1]: least
- maximum reduction in IOP (mean SEM) [1]: 3.3±0.9 mm Hg
- time for which IOP was reduced (p<0.05) [1]: only at 1 hour

Compound: CC(C)OC(=O)CCC/C=C\C[C@@H]1[C@@H](CC[C@@H](O)CCc2ccccc2)[C@H](O)C[C@@H]1O [latanoprost, reference compound]
- Intraocular Pressure Mean ± SEM, treated eyes (drug) (normal monkey eyes [2]; [7]): 13.2 ± 0.7 mmHg
- lowering of IOP in normal monkey eye (normal monkey eyes [2]; [8]): 10.8%
- Outflow Facility Mean ± SEM, treated eyes (drug) (normal monkey eyes [4]; [7]): 0.76 ± 0.08 μl/min/mmHg
- effect on outflow facility in normal monkey eye (normal monkey eyes [4]; [8]): not significant effect
